Test results: patent US9682928B2 (NeuroPro Therapeutics, Inc., priority 2009, dated 2017)
Where “and” joins values, the source holds several entries; their conditions need not be identical. Equal entries are not always repeated. Entries after “also recorded” stand apart in the source; their conditions may differ.

Experiments:
rats = test: Contextual fear conditioning in rats; type: in vivo, rat; conditions: I.V.; furosemide 100 mg/kg, bumetanide 50 mg/kg
Method: Contextual fear conditioning involves pairing an aversive event, in this case moderate foot shock, with a distinctive environment. The strength of the fear memory is assessed using freezing, a species-typical defensive reaction in rats, marked by complete immobility, except for breathing. […] However, if they are allowed to explore the distinctive environment sometime before the immediate shock, they show intense anxiety and fear when placed back into the same environment. By procedurally dividing contextual fear conditioning into two phases, the effects of treatments on memory for the context (specifically a hippocampus based process) from learning the association between context and shock or experiencing the aversiveness of the shock (which depend upon emotional response circuitry including amygdala) were separately studied. […] The experiment employed 24 rats. […] Each rat was again placed into the same environment for 8 min during which time freezing was measured, as an index of Pavlovian conditioned fear. […] Measurement of freezing was accomplished through an overhead video camera connected to the microcomputer and was automatically scored using a specialty piece of software, FreezeFrame (OER Inc., Reston, Va.) Total freezing time was analyzed in a one-way analysis of variance (ANOVA) test, with drug dose as the […] factor.

[1] = target: T1, α3β3γ2 GABAA receptor isoform (Homo sapiens, UniProt P18507+P28472+P34903); test: Whole-cell patch clamp, transfected HEK-293T cells; type: cell-based, rat or human; conditions: 10 μM NTP-2014; 1 μM and 100 μM GABA
T1 construct: expressed in transfected cells; host or cells: HEK-293T, transient transfection
Method: (§1) The addition of GABA to […] activates the recombinant expressed GABAA receptors, creating an ion movement through the ion channel in the GABAA receptor. The electrical current generated by the movement of chloride ions into the cells can be quantified.
(§2) HEK-293T cells were transiently transfected with rat or human GABAA receptor subunits. Whole-cell patch clamp recording was performed at −50 mV unless otherwise indicated. Test compounds was diluted from a freshly made stock in DMSO, GABA was prepared from a frozen stock. For each experiment GABA or GABA+a test compound was applied for 5 seconds, and the electrical current generated by the movement of chloride ions into the cells was measured and recorded as a trace of current versus time.
(§3) Compounds described herein (e.g., NTP-2014) were tested at high and low GABA concentrations against multiple GABAA receptor isoforms (e.g., α1β3γ2, α2β3 γ2, α3β3γ2, α3β3γ2, α4β3γ2, α5β3γ2, α6β3γ2). […] NTP-2014 inhibits the currents in the parasynaptic α4 GABAA receptor isoform in GABAergic interneurons. […]

[2] = target: T2, α1β3γ2 GABAA receptor isoform (Homo sapiens, UniProt P14867+P18507+P28472); test: Whole-cell patch clamp, transfected HEK-293T cells; type: cell-based, rat or human; conditions: 10 μM NTP-2014
T2 construct: expressed in transfected cells; host or cells: HEK-293T, transient transfection
Method: as §1, §2, §3

[3] = target: T3, α2β3γ2 GABAA receptor isoform (Homo sapiens, UniProt P18507+P28472+P47869); test: Whole-cell patch clamp, transfected HEK-293T cells; type: cell-based, rat or human; conditions: 10 μM NTP-2014; 1 μM and 100 μM GABA
T3 construct: expressed in transfected cells; host or cells: HEK-293T, transient transfection
Method: as §1, §2, §3

[4] = target: T4, α6β3γ2 GABAA receptor isoform (Homo sapiens, UniProt P18507+P28472+Q16445); test: Whole-cell patch clamp, transfected HEK-293T cells; type: cell-based, rat or human
T4 construct: expressed in transfected cells; host or cells: HEK-293T, transient transfection
Method: as §1, §2, §3

[5] = target: T5, α5β3γ2 GABAA receptor isoform (Homo sapiens, UniProt P18507+P28472+P31644); test: Whole-cell patch clamp, transfected HEK-293T cells; type: cell-based, rat or human; conditions: 10 μM NTP-2014; 1 μM and 100 μM GABA
T5 construct: expressed in transfected cells; host or cells: HEK-293T, transient transfection
Method: as §1, §2, §3

[6] = Brain levels in rat following IP administration; type: in vivo; conditions: PBx pretreated; for Concentration of NTP-2024 in rat brain: NTP-2024 100 mg/kg IP; for Concentration of NTP-2000 (bumetanide) in rat brain: after NTP-2024 100 mg/kg IP
Male CD-1 mice = test: Chung (SNL) neuropathic pain study in mice; type: in vivo, mouse; conditions: high dose group (180 mg/kg NTP-2014; 100 mg/kg NTP-2026; gabapentin 100 mg/kg, i.p.)

T4 sequence (Q16445 20-453): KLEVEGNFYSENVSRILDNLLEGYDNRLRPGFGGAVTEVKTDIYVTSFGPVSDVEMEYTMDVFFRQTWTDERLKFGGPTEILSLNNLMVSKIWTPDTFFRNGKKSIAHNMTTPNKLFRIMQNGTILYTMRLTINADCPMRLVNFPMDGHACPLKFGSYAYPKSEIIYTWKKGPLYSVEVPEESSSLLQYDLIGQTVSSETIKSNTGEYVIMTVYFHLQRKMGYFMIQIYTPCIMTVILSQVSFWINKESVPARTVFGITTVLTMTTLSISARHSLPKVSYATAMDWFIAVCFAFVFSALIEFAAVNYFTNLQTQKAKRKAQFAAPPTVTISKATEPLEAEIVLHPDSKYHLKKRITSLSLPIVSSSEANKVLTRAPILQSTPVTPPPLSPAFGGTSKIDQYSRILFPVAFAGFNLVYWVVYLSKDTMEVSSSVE
T4 sequence (P28472 26-473): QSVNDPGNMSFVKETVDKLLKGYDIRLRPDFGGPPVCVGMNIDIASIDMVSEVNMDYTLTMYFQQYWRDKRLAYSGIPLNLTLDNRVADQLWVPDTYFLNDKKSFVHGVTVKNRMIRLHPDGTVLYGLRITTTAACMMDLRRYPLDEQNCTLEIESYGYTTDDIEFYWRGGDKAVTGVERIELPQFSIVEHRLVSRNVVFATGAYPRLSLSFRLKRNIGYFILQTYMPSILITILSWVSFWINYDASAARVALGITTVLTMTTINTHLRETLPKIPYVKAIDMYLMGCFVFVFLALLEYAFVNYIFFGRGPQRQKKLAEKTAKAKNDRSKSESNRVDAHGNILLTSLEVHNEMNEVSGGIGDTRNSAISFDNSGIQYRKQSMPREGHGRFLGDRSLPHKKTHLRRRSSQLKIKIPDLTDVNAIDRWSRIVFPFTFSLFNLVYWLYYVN
T4 sequence (P18507 40-475): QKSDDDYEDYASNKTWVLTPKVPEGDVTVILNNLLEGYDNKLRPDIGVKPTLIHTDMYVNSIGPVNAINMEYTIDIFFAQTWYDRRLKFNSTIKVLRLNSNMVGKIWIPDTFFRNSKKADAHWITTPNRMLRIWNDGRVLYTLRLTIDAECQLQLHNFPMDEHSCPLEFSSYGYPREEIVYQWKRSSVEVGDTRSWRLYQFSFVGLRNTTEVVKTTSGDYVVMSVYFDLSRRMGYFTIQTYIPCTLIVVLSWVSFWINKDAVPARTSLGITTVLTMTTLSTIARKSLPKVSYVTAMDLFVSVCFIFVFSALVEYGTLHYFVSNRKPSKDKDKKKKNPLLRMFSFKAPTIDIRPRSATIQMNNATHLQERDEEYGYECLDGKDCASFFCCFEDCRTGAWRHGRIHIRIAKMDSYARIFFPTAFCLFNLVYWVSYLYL
T2 sequence (P14867 28-456): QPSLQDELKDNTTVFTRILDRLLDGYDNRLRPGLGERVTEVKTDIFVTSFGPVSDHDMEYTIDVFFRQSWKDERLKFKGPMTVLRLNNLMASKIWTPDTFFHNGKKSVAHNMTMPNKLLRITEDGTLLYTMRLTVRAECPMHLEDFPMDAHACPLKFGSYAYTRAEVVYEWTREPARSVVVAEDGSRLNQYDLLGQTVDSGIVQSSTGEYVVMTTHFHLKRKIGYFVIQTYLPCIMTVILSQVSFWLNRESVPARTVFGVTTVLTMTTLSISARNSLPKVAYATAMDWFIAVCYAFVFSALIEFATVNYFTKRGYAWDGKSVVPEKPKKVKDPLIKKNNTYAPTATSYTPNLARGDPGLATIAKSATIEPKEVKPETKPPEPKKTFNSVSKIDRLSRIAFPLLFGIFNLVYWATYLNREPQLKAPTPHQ
T2 sequence (P28472 26-473): as the sequence (P28472 26-473) above
T2 sequence (P18507 40-475): as the sequence (P18507 40-475) above
T5 sequence (P31644 32-462): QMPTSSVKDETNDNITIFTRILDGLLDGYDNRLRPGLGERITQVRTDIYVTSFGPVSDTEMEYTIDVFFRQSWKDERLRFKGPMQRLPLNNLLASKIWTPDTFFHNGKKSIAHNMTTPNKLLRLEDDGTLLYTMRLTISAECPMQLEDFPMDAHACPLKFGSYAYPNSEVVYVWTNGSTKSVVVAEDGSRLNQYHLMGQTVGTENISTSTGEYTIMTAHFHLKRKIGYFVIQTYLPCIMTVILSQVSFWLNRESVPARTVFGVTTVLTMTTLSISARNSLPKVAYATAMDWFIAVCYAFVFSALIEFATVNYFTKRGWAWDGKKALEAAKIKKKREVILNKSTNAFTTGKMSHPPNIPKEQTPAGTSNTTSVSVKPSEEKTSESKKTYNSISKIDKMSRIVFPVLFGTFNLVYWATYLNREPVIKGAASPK
T5 sequence (P28472 26-473): as the sequence (P28472 26-473) above
T5 sequence (P18507 40-475): as the sequence (P18507 40-475) above
T1 sequence (P34903 29-492): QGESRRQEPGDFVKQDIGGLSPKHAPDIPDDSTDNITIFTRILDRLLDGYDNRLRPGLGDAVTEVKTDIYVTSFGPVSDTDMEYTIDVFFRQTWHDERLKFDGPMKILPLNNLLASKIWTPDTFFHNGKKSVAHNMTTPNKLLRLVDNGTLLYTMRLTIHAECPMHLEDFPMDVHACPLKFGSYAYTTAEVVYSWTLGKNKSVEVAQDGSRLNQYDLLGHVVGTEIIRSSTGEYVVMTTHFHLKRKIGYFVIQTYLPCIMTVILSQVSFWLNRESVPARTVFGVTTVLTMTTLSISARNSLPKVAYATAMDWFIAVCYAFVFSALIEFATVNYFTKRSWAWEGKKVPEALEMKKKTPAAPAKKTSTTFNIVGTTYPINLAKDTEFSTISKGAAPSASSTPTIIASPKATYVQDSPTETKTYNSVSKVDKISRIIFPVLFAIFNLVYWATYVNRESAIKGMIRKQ
T1 sequence (P28472 26-473): as the sequence (P28472 26-473) above
T1 sequence (P18507 40-475): as the sequence (P18507 40-475) above
T3 sequence (P47869 29-451): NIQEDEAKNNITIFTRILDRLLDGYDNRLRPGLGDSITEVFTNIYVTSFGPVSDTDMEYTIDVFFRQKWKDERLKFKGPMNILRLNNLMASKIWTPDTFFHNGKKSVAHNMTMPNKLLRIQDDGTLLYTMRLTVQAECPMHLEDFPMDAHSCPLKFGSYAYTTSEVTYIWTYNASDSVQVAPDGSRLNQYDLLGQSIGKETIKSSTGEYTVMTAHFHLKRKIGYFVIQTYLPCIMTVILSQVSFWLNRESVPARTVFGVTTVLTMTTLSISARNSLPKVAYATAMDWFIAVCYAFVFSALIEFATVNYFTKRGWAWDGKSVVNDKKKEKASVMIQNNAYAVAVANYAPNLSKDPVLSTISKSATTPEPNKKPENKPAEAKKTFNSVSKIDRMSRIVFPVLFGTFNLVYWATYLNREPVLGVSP
T3 sequence (P28472 26-473): as the sequence (P28472 26-473) above
T3 sequence (P18507 40-475): as the sequence (P18507 40-475) above

CCCCNc1cc(C(=O)O)cc(S(N)(=O)=O)c1Oc1ccccc1 [Bumetanide, reference compound]
Freezing vs vehicle alone (rats): significantly less freezing

CCCCN(CCCC)c1cc(C(=O)O)cc(S(N)(=O)=O)c1Oc1ccccc1 [NTP-2014, 3-Aminosulfonyl-5-N,N-dibutylamino-4-phenoxybenzoic acid]
Effect on current, α3 containing isoform [1]: slowed the decay rate; also recorded: inhibited
Effect on current, α1β3γ2 GABAA receptor isoform [2]: no significant activation; also recorded: amplitude of the current was not increased
Effect on current, α2 containing isoform [3]: slowed the decay rate; also recorded: inhibited
Effect on currents, α6 containing receptors ([4]; 0.1, 1, 10 μM GABA): inhibited by NTP-2014 at higher GABA concentrations, but unaffected at lower GABA concentrations
EC50 ([4]; FIG. 41C, read-out: EC50 in α6 containing GABAA receptor isoforms): 20.2 µM
IC50 ([4]; read-out: IC50, receptors containing the α6 subunit): 10 to 30 µM
Effect on current, α5 containing isoform [5]: slowed the decay rate; also recorded: inhibited

CCCCNc1cc(C(=O)NN2CCOCC2)cc(S(N)(=O)=O)c1Oc1ccccc1 [NTP-2024, N-Morpholinyl 3-Aminosulfonyl-5-N-butylamino-4-phenoxybenzamide]
Concentration of NTP-2024 in rat brain ([6]; 15 m): 283.783 ng/mL and 277.985 ng/mL and 226.803 ng/mL
Concentration of NTP-2024 in rat brain ([6]; 30 m): 223.370 ng/mL and 340.460 ng/mL and 348.182 ng/mL
Concentration of NTP-2024 in rat brain ([6]; 2 h): 124.854 ng/mL and 112.217 ng/mL and 154.415 ng/mL
Concentration of NTP-2024 in rat brain ([6]; 4 h): 26.6338 ng/mL and 23.4893 ng/mL and 37.1694 ng/mL
Concentration of NTP-2024 in rat brain ([6]; 6 h): 25.4146 ng/mL and 18.4619 ng/mL and 25.7880 ng/mL
Concentration of NTP-2000 (bumetanide) in rat brain ([6]; 15 m): BLQ (Below Limit of Quantitation (<1 ng/mL))
Concentration of NTP-2000 (bumetanide) in rat brain ([6]; 2 h): BLQ (Below Limit of Quantitation (<1 ng/mL))
Concentration of NTP-2000 (bumetanide) in rat brain ([6]; 4 h): BLQ (Below Limit of Quantitation (<1 ng/mL))
Concentration of NTP-2000 (bumetanide) in rat brain ([6]; 6 h): BLQ (Below Limit of Quantitation (<1 ng/mL))

CCCCNc1cc(C(=O)N(C)CCCN(C)C)cc(S(N)(=O)=O)c1Oc1ccccc1 [NTP-2026, N-(3-(Dimethylamino)propyl)-N-methyl 3-Aminosulfonyl-5-N-butylamino-4-phenoxybenzamide]
Sedation (Male CD-1 mice): Some minor sedation; also recorded: tactile hypersensitivity. Some minor
